# Biological target: beta2-adrenergic receptors in A431 (Homo sapiens, UniProt P07550)
# Conditions: quiescent A431 cells; epinephrine gradient; responses resembled classical dose-dependent responses
# Description: Human epidermoid carcinoma A431 cells were obtained from American Type Cell Culture. A431 cells were grown in Dulbecco's modified Eagle's medium (DMEM) supplemented with 10% fetal bovine serum (FBS), 4.5 g/liter glucose, 2 mM glutamine, and antibiotics. For cell culture, ˜4×10^4 cells suspended in 6 μl the medium containing 10% FBS were injected into the chamber, and were cultured at 37° C. under air/5% CO2 until ˜95% confluency was reached (˜1 day). To prevent drying during the culture, the biosensor device was maintained within a petri dish with a cover, and extra cell medium within the dish. The cells were then subject to starvation with the medium without any FBS for overnight. […] The optical system allows one to collect the resonant image of whole sensor at the single cell.
# Coming RWG imaging system was used for label-free biosensor cell assays. The imaging system is capable of high resolution imaging, with a spatial resolution of 6 microns in the direction perpendicular to the propagation path of the coupled light, a resolution of about 150 microns in the direction parallel to the propagation path of the coupled light. The cellular responses across the whole sensor were recorded in real time at each pixel (6 microns×6 microns). The cellular responses at defined locations or zones from the inlet to the outlet were averaged to generate location-dependent cellular responses. […]
# Chain of beta2-adrenergic receptors in A431 (P07550 whole entry): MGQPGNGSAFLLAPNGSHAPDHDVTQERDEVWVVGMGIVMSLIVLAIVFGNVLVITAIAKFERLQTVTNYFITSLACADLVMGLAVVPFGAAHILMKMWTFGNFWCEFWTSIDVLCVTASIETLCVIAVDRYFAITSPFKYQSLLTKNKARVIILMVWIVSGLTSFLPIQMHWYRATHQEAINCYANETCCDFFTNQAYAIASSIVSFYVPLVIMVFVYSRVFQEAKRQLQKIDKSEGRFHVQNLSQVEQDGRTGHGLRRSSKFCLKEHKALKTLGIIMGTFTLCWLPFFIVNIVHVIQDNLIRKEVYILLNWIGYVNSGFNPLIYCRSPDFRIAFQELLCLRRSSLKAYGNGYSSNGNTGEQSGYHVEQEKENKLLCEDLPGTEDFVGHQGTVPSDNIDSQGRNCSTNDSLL
smiles,measurement,value
CNC[C@H](O)c1ccc(O)c(O)c1 [epinephrine],chemoattractant determination from location-dependent DMR responses,not a chemoattractant
